Measured values as given in PubChem BioAssay (NCI).
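A five-concentration, 48-hour dose response in 96-well plates underlies each endpoint, interpolated linearly between surrounding concentrations. Definition used: TGI = concentration required for complete inhibition of growth.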

Columns and labels:
Test in all cases: growth of human tumour cells (NCI), 48 h
RXF 393 renal = test system: RXF 393 renal
A549 NSCLC = test system: A549 NSCLC
PC-3 prostate = test system: PC-3 prostate
MDA-MB-231 breast = test system: MDA-MB-231 breast
ACHN renal = test system: ACHN renal
MOLT-4 leukemia = test system: MOLT-4 leukemia
OVCAR-5 ovarian = test system: OVCAR-5 ovarian
MDA-N = test system: MDA-N
NCI/ADR-RES ovarian = test system: NCI/ADR-RES ovarian
OVCAR-4 ovarian = test system: OVCAR-4 ovarian
HCT-116 colon = test system: HCT-116 colon
SNB-75 CNS = test system: SNB-75 CNS
KM12 colon = test system: KM12 colon
OVCAR-8 ovarian = test system: OVCAR-8 ovarian
SNB-19 CNS = test system: SNB-19 CNS
A498 renal = test system: A498 renal
HT29 colon = test system: HT29 colon
SF-295 CNS = test system: SF-295 CNS
COLO 205 colon = test system: COLO 205 colon
LOX IMVI melanoma = test system: LOX IMVI melanoma
TK-10 renal = test system: TK-10 renal
786-0 renal = test system: 786-0 renal
SN12C renal = test system: SN12C renal
UO-31 renal = test system: UO-31 renal
MCF7 breast = test system: MCF7 breast
SR leukemia = test system: SR leukemia
RPMI-8226 leukemia = test system: RPMI-8226 leukemia
HL-60(TB) leukemia = test system: HL-60(TB) leukemia
SK-MEL-5 melanoma = test system: SK-MEL-5 melanoma
EKVX NSCLC = test system: EKVX NSCLC
MDA-MB-435 = test system: MDA-MB-435
M14 melanoma = test system: M14 melanoma
CCRF-CEM leukemia = test system: CCRF-CEM leukemia
HOP-92 NSCLC = test system: HOP-92 NSCLC
T-47D breast = test system: T-47D breast
SF-268 CNS = test system: SF-268 CNS
U251 CNS = test system: U251 CNS
SW-620 colon = test system: SW-620 colon
CAKI-1 renal = test system: CAKI-1 renal
SF-539 CNS = test system: SF-539 CNS
UACC-257 melanoma = test system: UACC-257 melanoma
NCI-H460 lung = test system: NCI-H460 lung
SK-MEL-28 melanoma = test system: SK-MEL-28 melanoma
HS 578T breast = test system: HS 578T breast
HCT-15 colon = test system: HCT-15 colon
K-562 leukemia = test system: K-562 leukemia
UACC-62 melanoma = test system: UACC-62 melanoma
SK-OV-3 ovarian = test system: SK-OV-3 ovarian
HOP-62 NSCLC = test system: HOP-62 NSCLC
HCC-2998 colon = test system: HCC-2998 colon
OVCAR-3 ovarian = test system: OVCAR-3 ovarian
NCI-H23 lung = test system: NCI-H23 lung
BT-549 breast = test system: BT-549 breast
NCI-H226 lung = test system: NCI-H226 lung
IGROV1 ovarian = test system: IGROV1 ovarian
DU-145 prostate = test system: DU-145 prostate

Compound `c1cc(-c2csc(-c3ccsc3)c2)cs1` has a TGI (RXF 393 renal) greater than 100 µM, a TGI (A549 NSCLC) greater than 100 µM and a TGI (PC-3 prostate) greater than 100 µM. For the same compound, the TGI (MDA-MB-231 breast) was greater than 100 µM, the TGI (ACHN renal) was greater than 100 µM and the TGI (MOLT-4 leukemia) was greater than 100 µM. The TGI (OVCAR-5 ovarian) was greater than 100 µM, the TGI (MDA-N) was greater than 100 µM and the TGI (NCI/ADR-RES ovarian) was greater than 100 µM. It also gave a TGI (OVCAR-4 ovarian) greater than 100 µM, a TGI (HCT-116 colon) greater than 100 µM and a TGI (SNB-75 CNS) greater than 100 µM. It also gave a TGI (KM12 colon) greater than 100 µM, a TGI (OVCAR-8 ovarian) greater than 100 µM and a TGI (SNB-19 CNS) greater than 100 µM. The TGI (A498 renal) was greater than 100 µM, the TGI (HT29 colon) was greater than 100 µM and the TGI (SF-295 CNS) was greater than 100 µM. The TGI (COLO 205 colon) was greater than 100 µM, the TGI (LOX IMVI melanoma) was greater than 100 µM and the TGI (TK-10 renal) was greater than 100 µM. The TGI (786-0 renal) was greater than 100 µM, the TGI (SN12C renal) was greater than 100 µM and the TGI (UO-31 renal) was greater than 100 µM. It also gave a TGI (MCF7 breast) of 48.6 µM, a TGI (SR leukemia) greater than 100 µM and a TGI (RPMI-8226 leukemia) greater than 100 µM. For the same compound, the TGI (HL-60(TB) leukemia) was greater than 100 µM, the TGI (SK-MEL-5 melanoma) was greater than 100 µM and the TGI (EKVX NSCLC) was greater than 100 µM. It also gave a TGI (MDA-MB-435) greater than 100 µM, a TGI (M14 melanoma) greater than 100 µM and a TGI (CCRF-CEM leukemia) greater than 100 µM. It also gave a TGI (HOP-92 NSCLC) greater than 100 µM, a TGI (T-47D breast) greater than 100 µM and a TGI (SF-268 CNS) greater than 100 µM. It also gave a TGI (U251 CNS) greater than 100 µM, a TGI (SW-620 colon) greater than 100 µM and a TGI (CAKI-1 renal) greater than 100 µM. The TGI (SF-539 CNS) was greater than 100 µM, the TGI (UACC-257 melanoma) was greater than 100 µM and the TGI (NCI-H460 lung) was greater than 100 µM. It also gave a TGI (SK-MEL-28 melanoma) greater than 100 µM, a TGI (HS 578T breast) greater than 100 µM and a TGI (HCT-15 colon) greater than 100 µM. It also gave a TGI (K-562 leukemia) greater than 100 µM, a TGI (UACC-62 melanoma) greater than 100 µM and a TGI (SK-OV-3 ovarian) greater than 100 µM. It also gave a TGI (HOP-62 NSCLC) greater than 100 µM, a TGI (HCC-2998 colon) greater than 100 µM and a TGI (OVCAR-3 ovarian) greater than 100 µM. For the same compound, the TGI (NCI-H23 lung) was greater than 100 µM, the TGI (BT-549 breast) was greater than 100 µM and the TGI (NCI-H226 lung) was 83.2 µM. The TGI (IGROV1 ovarian) was greater than 100 µM and the TGI (DU-145 prostate) was greater than 100 µM.
